Experimental findings from PMC7024208, “In Silico and In Vitro Experimental Studies of New Dibenz[b,e]oxepin-11(6H)one O-(arylcarbamoyl)-oximes Designed as Potential Antimicrobial Agents” (Molecules, 2020) are described below.

Structures are written as SMILES. In brackets after ≈: the same amount, converted by molar mass. Where two headings read alike, the source gives them in different places.

The subject of series [1] is C. albicans ATCC 10231. The series is described as follows: Qualitative antimicrobial screening, adapted disk diffusion. Set-up: zone of inhibition: dose or concentration left out as unconfirmed. Format: cell-based, Candida albicans. The procedure: (§1) The antimicrobial activities of the synthesized compounds were determined against ATCC reference and clinical microbial strains, i.e., Bacillus subtilis ATCC 6633, Staphylococcus aureus ATCC 25923, Escherichia coli ATCC 25922, Klebsiella pneumoniae 350, Pseudomonas aeruginosa 1671 and Candida albicans ATCC 10231, using as positive controls the antibiotic ticarcillin and the antifungal agent fluconazole. Microbial suspensions of 1.5 × 10^8 CFU/mL corresponding to 0.5 McFarland density obtained from 15–18 h bacterial cultures developed on solid media were used in our experiments. The antimicrobial activity was tested on Mueller-Hinton Agar (MHA) medium, while a Yeast Peptone Glucose (YPG) medium was used in case of C. albicans. The obtained compounds were solubilized in DMSO and the starting stock solution was of 5000 μg/mL concentration. The qualitative screening was performed by an adapted disk diffusion method as previously reported.
(A growth-free zone around the sample is the usual read-out of agar diffusion tests.)

For series [2], the system named is C. albicans ATCC 10231. Briefly: MIC by liquid medium microdilution. Format: cell-based. The settings on record: Candida albicans. The method, then: as §1
(§2) The quantitative assay of the antimicrobial activity was performed by the liquid medium microdilution method, in 96 multi-well plates, in order to establish the minimal inhibitory concentration (MIC). In this purpose, serial two-fold dilutions of the compounds ranging between 5000 and 4.8 µg/mL were performed in a 200 µL volume of broth and each well was seeded with 50 µL of microbial inoculum. Sterility control (wells containing only culture medium) and culture controls (wells containing culture medium seeded with the microbial inoculum) were used. The influence of the DMSO solvent was also quantified in a series of wells containing DMSO [36], diluted accordingly with the dilution scheme used for the compounds and for the positive controls.

Series [3] deals with E. coli ATCC 25922. The series is described as follows: MIC by liquid medium microdilution. The format is cell-based. The following applies: Escherichia coli. The method, then: as §1, §2
(In general: In broth dilution the organism is exposed to a series of concentrations in liquid medium.)

The subject of series [4] is S. aureus ATCC 25923. Briefly: MIC by liquid medium microdilution. The format is cell-based. The following applies: Staphylococcus aureus. The method, then:
as §1, §2

For series [5], the system named is S. aureus ATCC 25923. The series is described as follows: Qualitative antimicrobial screening, adapted disk diffusion. Format: cell-based, Staphylococcus aureus. Set-up: zone of inhibition: dose or concentration left out as unconfirmed. The following applies: Staphylococcus aureus; for zone of inhibition at 5000 µg/mL (stock): ATCC25923, S. aureus ATCC 25923, adapted diffusion assay, read-out: growth inhibition diameter. The method, then: as §1

Series [6] relates to B. subtilis ATCC 6633. The series is described as follows: MIC by liquid medium microdilution. Format: cell-based, Bacillus subtilis. The following applies: B. subtilis ATCC 6633, 24 h at 37 °C. The method, then:
as §1, §2

For series [7], the system named is S. aureus ATCC 25923. The series is described as follows: Antibiofilm activity (MBEC), micro-titer method on plastic inert substratum. Format: cell-based, Staphylococcus aureus. The settings on record: S. aureus ATCC 25923 biofilm on plastic substratum. The procedure:
(§3) The assessment of the new compounds influence on the microbial ability to colonize the plastic inert substratum was performed by the micro-titer method, following previously described protocols. The absorbance at 490 nm was measured with an LB 911 ELISA reader (Apollo, Berthold Technologies GmbH & Co. KG, Bad Wildbad, Germany). All biological experiments were performed in triplicates.

In another series the test system is P. aeruginosa ATCC 27853. Briefly: Qualitative antimicrobial screening, adapted disk diffusion. Format: cell-based. The arrangement: zone of inhibition: dose or concentration left out as unconfirmed. The following applies: Pseudomonas aeruginosa; for zone of inhibition at 5000 µg/mL (stock): ATCC27853, P. aeruginosa ATCC 27853, adapted diffusion assay, read-out: growth inhibition diameter.

Series [8] has as its system C. albicans ATCC 10231. The series is described as follows: Antibiofilm activity (MBEC), micro-titer method on plastic inert substratum. The format is cell-based, Candida albicans. The following applies: C. albicans ATCC 10231 biofilm on plastic substratum. The method, then: as §3
The test system of a further series is K. pneumoniae 1771. The series is described as follows: Qualitative antimicrobial screening, adapted disk diffusion. The format is cell-based, Klebsiella pneumoniae. Set-up: zone of inhibition: dose or concentration left out as unconfirmed. The settings on record: for zone of inhibition at 5000 µg/mL (stock): Klebsiella pneumoniae, K. pneumoniae 1771, adapted diffusion assay, read-out: growth inhibition diameter.

Series [9] deals with E. coli ATCC 25922. Described as above. The format is cell-based, Escherichia coli. The arrangement: zone of inhibition: dose or concentration left out as unconfirmed. The following applies: for zone of inhibition at 5000 µg/mL (stock): ATCC25922, read-out: growth inhibition diameter. The procedure:
as §1

Series [10] relates to E. coli ATCC 25922. Briefly: Antibiofilm activity (MBEC), micro-titer method on plastic inert substratum. The format is cell-based, Escherichia coli. The following applies: E. coli ATCC 25922 biofilm on plastic substratum. The procedure: as §3
Series [11] can be described thus: Annexin V-FITC/propidium iodide apoptosis analysis by flow cytometry. The format is cell-based. The settings on record: human, HCT8 cells, Annexin V-FITC/PI, read-out: viable cells (Q4). The method, then: (§4) For the in vitro assessment of the cytotoxic effect, the HCT8 cells and the CellTiter Assay kit (Promega, Madison, WI, USA) and Annexin V-FITC Apoptosis Detection Kit I (BD Bioscience Pharmingen, Franklin Lakes, NJ, USA) were used. Briefly, for CellTiter Assay, 1 × 10^4 cells/well were plated in 96 well plate and 24 h after, were treated with the new compound at final concentration between 400 µg/mL–10 µg/mL. The viability was evaluated after 24 h by adding CellTiter aqueous solution and reading to spectrophotometer according to the manufacturer indications. The IC50 were calculated from the percent of viability reported to untreated cells using on line tools https://www.aatbio.com/tools/ic50-calculator. For Annexin V-FITC Apoptosis Detection Kit I, 5 × 10^5 cells were seeded in 3.5 cm diameter Petri dish and treated with 100 µg/mL compounds solution for 24 h. The total cells were resuspended in 100 µL of binding buffer, and stained with 5 µL Annexin V-FITC and 5 µL propidium iodide for 10 min in dark. At least 10,000 events from each sample were acquired using a flow cytometer (Beckman Coulter, Indianapolis, IN, USA). The percentage of cells affected by the treatment was determined by subtracting the percentage of apoptotic/necrotic cells in the untreated population from percentage of apoptotic cells in the treated population.

In series [12] the test system is B. subtilis ATCC 6633. Briefly: Antibiofilm activity (MBEC), micro-titer method on plastic inert substratum. Format: cell-based, Bacillus subtilis. The following applies: B. subtilis ATCC 6633 biofilm on plastic substratum. The method, then:
as §3

A short description of series [13]: Cytotoxicity, CellTiter Assay. The format is cell-based. The settings on record: human, HCT8 cells, 400–10 µg/mL tested. The procedure: as §4
Series [14] relates to B. subtilis ATCC 6633. The series is described as follows: Qualitative antimicrobial screening, adapted disk diffusion. The format is cell-based, Bacillus subtilis. The arrangement: zone of inhibition: dose or concentration left out as unconfirmed. The settings on record: for zone of inhibition at 5000 µg/mL (stock): ATCC6633, read-out: growth inhibition diameter. The procedure:
as §1

Where [15] appears, read: C. albicans ATCC 10231, adapted diffusion assay.
Setting [16] is: ATCC25922, E. coli ATCC 25922, 24 h at 37 °C, read-out: MIC.
[17] abbreviates: ATCC25923, S. aureus ATCC 25923, 24 h at 37 °C, read-out: MIC.
[18] abbreviates: Bacillus subtilis, ATCC6633, 24 h, read-out: MIC.
[19] abbreviates: Escherichia coli, E. coli ATCC 25922, adapted diffusion assay.
Where [20] appears, read: Bacillus subtilis, B. subtilis ATCC 6633, adapted diffusion assay.

A word on the MIC: it is the lowest concentration found to suppress growth. One may read the IC50 as the concentration needed to halve the response being measured. For `Cc1cccc(NC(=O)ON=C2c3ccccc3COc3ccccc32)c1` [Compound 7a, 6,11-Dihydrodibenz[b,e]oxepin-11(6H)one O-(3-tolyl-carbamoyl)oxime], the growth inhibition diameter result is listed as “anti-C. albicans activity” in the series with C. albicans ATCC 10231 [1] (setting [15]) and “anti-B. subtilis” with B. subtilis ATCC 6633 [14] (B. subtilis ATCC 6633, adapted diffusion assay). Also, the zone of inhibition in the series with C. albicans ATCC 10231 [1] (Candida albicans, ATCC10231, read-out: growth inhibition diameter) came to 8 mm; with S. aureus ATCC 25923 [5] (ATCC25923, read-out: growth inhibition diameter), 0 mm; in the series on P. aeruginosa ATCC 27853 (ATCC27853, read-out: growth inhibition diameter), 0 mm; with K. pneumoniae 1771 (Klebsiella pneumoniae, 1771, read-out: growth inhibition diameter), 0 mm; with E. coli ATCC 25922 [9] (Escherichia coli, ATCC25922, read-out: growth inhibition diameter), 0 mm; with B. subtilis ATCC 6633 [14] (Bacillus subtilis, ATCC6633, read-out: growth inhibition diameter), 8 mm. Moreover, the MIC with C. albicans ATCC 10231 [2] (ATCC10231, 24 h) was 4.8 µg/mL (≈ 13.4 µM); in the series with E. coli ATCC 25922 [3] (ATCC25922, 24 h), above 5000 µg/mL; with S. aureus ATCC 25923 [4] (ATCC25923, 24 h), above 5000 µg/mL; with B. subtilis ATCC 6633 [6], 4.8 µg/mL (≈ 13.4 µM); against B. subtilis ATCC 6633 [6] (Bacillus subtilis, ATCC6633, 24 h) it was 4.8 to 39 µg/mL (≈ 13.4 to 109 µM). Moreover, the MBEC in the series on S. aureus ATCC 25923 [7] was found to be 39 µg/mL; in the series on C. albicans ATCC 10231 [8], 39 µg/mL; in the series on E. coli ATCC 25922 [10] it was 625 µg/mL; in the series with B. subtilis ATCC 6633 [12], 156 µg/mL. Moreover, the viability at 24 h, 100 µg/mL in series [11] came to 84.2%. This compound gave an IC50 at 24 h in [13] of 264 µg/mL (≈ 737 µM).

In the case of `O=C(Nc1cccc(Cl)c1)ON=C1c2ccccc2COc2ccccc21` [Compound 7c, 6,11-Dihydrodibenz[b,e]oxepin-11(6H)one O-(3-chlorophenyl-carbamoyl)oxime], the growth inhibition diameter entry with C. albicans ATCC 10231 [1] (setting [15]) is listed as “active against”; in the series with E. coli ATCC 25922 [9] (E. coli ATCC 25922, adapted diffusion assay) it was “active against”. Moreover, the zone of inhibition at 5000 µg/mL (stock) in the series on C. albicans ATCC 10231 [1] (Candida albicans, ATCC10231, C. albicans ATCC 10231, adapted diffusion assay, read-out: growth inhibition diameter) was 8 mm; in the series with S. aureus ATCC 25923 [5], 0 mm; in the series on P. aeruginosa ATCC 27853 it was 0 mm; in the series with K. pneumoniae 1771, 0 mm; in the series with E. coli ATCC 25922 [9] (setting [19]) it was 4 mm; in the series on B. subtilis ATCC 6633 [14] (setting [20]) it was 0 mm. Besides, the MIC with C. albicans ATCC 10231 [2] (ATCC10231, C. albicans ATCC 10231, 24 h at 37 °C, read-out: MIC) is 1250 µg/mL (≈ 3300 µM); in the series on E. coli ATCC 25922 [3] (setting [16]), 1250 µg/mL (≈ 3300 µM); with S. aureus ATCC 25923 [4] (setting [17]), above 5000 µg/mL; in the series with B. subtilis ATCC 6633 [6] (setting [18]), above 5000 µg/mL. This compound also gave an MBEC with C. albicans ATCC 10231 [8] of 4.8 µg/mL. Besides, the viability at 24 h, 100 µg/mL in series [11] is 89.8%. Moreover, the IC50 at 24 h in series [13] amounted to 304 µg/mL (≈ 803 µM).

With `CC1(C)S[C@@H]2[C@H](NC(=O)[C@H](C(=O)O)c3ccsc3)C(=O)N2[C@H]1C(=O)O` [Ticarcillin, ticarcillin, reference compound], the MIC in the series with E. coli ATCC 25922 [3] (setting [16]) was found to be 19.5 µg/mL (≈ 50.7 µM); in the series on S. aureus ATCC 25923 [4] (setting [17]) it was 9.76 µg/mL (≈ 25.4 µM); in the series on B. subtilis ATCC 6633 [6] (setting [18]) it was 78 µg/mL (≈ 203 µM). In addition, the zone of inhibition at 5000 µg/mL (stock) in the series on S. aureus ATCC 25923 [5] worked out at 21 mm; with P. aeruginosa ATCC 27853 it was 17 mm; in the series on K. pneumoniae 1771, 0 mm; in the series with E. coli ATCC 25922 [9] (setting [19]) it was 24 mm; with B. subtilis ATCC 6633 [14] (setting [20]) it was 15 mm. In addition, the MBEC in the series on S. aureus ATCC 25923 [7] was found to be 156 µg/mL; in the series on E. coli ATCC 25922 [10] it was 625 µg/mL; in the series with B. subtilis ATCC 6633 [12] it was 156 µg/mL.
